Experimental data: ChEMBL document CHEMBL3525983, “Pharmacokinetics, metabolism, and disposition of rivoglitazone, a novel peroxisome proliferator-activated receptor γ agonist, in rats and monkeys” (Drug Metab Dispos, 2011)

Assays:
[1] = Drug excretion in monkey feces treated with [14C]rivoglitazone at 1 mg/kg, po administered via gavage measured during 0 to 72 hrs by radio-HPLC analysis; assay type: ADME, organism-based, Macaca mulatta; set-up: dose 1 mg/kg, dosed compound name [14C]Rivoglitazone, route oral; conditions: rhesus monkey, in vivo
[2] = Drug excretion in monkey urine/feces treated with [14C]rivoglitazone at 1 mg/kg, po administered via gavage measured during 0 to 72 hrs by radio-HPLC analysis; assay type: ADME, organism-based, Macaca mulatta; set-up: dose 1 mg/kg, dosed compound name [14C]Rivoglitazone, route oral; conditions: rhesus monkey, in vivo
[3] = Retention time of the compound by LC-MS/MS analysis; assay type: physicochemical; set-up: dosed compound name [14C]Rivoglitazone
[4] = Drug excretion in F344/DuCrlCrlj rat feces treated with [14C]rivoglitazone at 1 mg/kg, po administered via gavage measured during 0 to 48 hrs by radio-HPLC analysis; assay type: ADME, organism-based; set-up: dose 1 mg/kg, dosed compound name [14C]Rivoglitazone, route oral; conditions: in vivo
[5] = Drug excretion in F344/DuCrlCrlj rat urine/feces treated with [14C]rivoglitazone at 1 mg/kg, po administered via gavage measured during 0 to 48 hrs by radio-HPLC analysis; assay type: ADME, organism-based; set-up: dose 1 mg/kg, dosed compound name [14C]Rivoglitazone, route oral; conditions: in vivo
[6] = Drug excretion in F344/DuCrlCrlj rat urine/bile treated with [14C]rivoglitazone at 1 mg/kg, po administered via gavage measured during 0 to 48 hrs by radio-HPLC analysis; assay type: ADME, organism-based; set-up: dose 1 mg/kg, dosed compound name [14C]Rivoglitazone, route oral; conditions: in vivo
[7] = tested on: Rattus norvegicus; assay: Drug level in F344/DuCrlCrlj rat plasma treated with [14C]rivoglitazone assessed as ratio of molar basis AUC (0 to t) at 1 mg/kg, po administered via gavage by LC-MS/MS analysis; assay type: ADME, organism-based; set-up: dose 1 mg/kg, dosed compound name [14C]Rivoglitazone, route oral; conditions: in vivo
[8] = tested on: Rhesus monkey; assay: Drug level in monkey plasma treated with [14C]rivoglitazone assessed as ratio of molar basis AUC (0 to t) at 1 mg/kg, po administered via gavage by LC-MS/MS analysis; assay type: ADME, organism-based, Macaca mulatta; set-up: dose 1 mg/kg, dosed compound name [14C]Rivoglitazone, route oral; conditions: in vivo
[9] = Drug excretion in monkey urine treated with [14C]rivoglitazone at 1 mg/kg, po administered via gavage measured during 0 to 72 hrs by radio-HPLC analysis; assay type: ADME, organism-based, Macaca mulatta; set-up: dose 1 mg/kg, dosed compound name [14C]Rivoglitazone, route oral; conditions: rhesus monkey, in vivo
[10] = Drug excretion in F344/DuCrlCrlj rat urine treated with [14C]rivoglitazone at 1 mg/kg, po administered via gavage measured during 0 to 48 hrs by radio-HPLC analysis; assay type: ADME, organism-based; set-up: dose 1 mg/kg, dosed compound name [14C]Rivoglitazone, route oral; conditions: in vivo
[11] = Drug excretion in F344/DuCrlCrlj rat bile treated with [14C]rivoglitazone at 1 mg/kg, po administered via gavage measured during 0 to 48 hrs by radio-HPLC analysis; assay type: ADME, organism-based; set-up: dose 1 mg/kg, dosed compound name [14C]Rivoglitazone, route oral; conditions: in vivo

Row | Compound recovery [1] [%] | Compound recovery [2] [%] | Retention_time [3] [min] | Compound recovery [4] | Compound recovery [5] [%] | Compound recovery [6] | AUCmet/AUCp [7] [%] | AUCmet/AUCp [8] [%] | Compound recovery [9] [%] | Compound recovery [10] [%] | Compound recovery [11] [%] | Compound
1 | 18 | 18 | 19 | 25.6% | 25.6 | metabolite_not_detected | 0.72 | 1.22 | – | – | – | Cn1c(COc2ccc(CC3SC(=O)NC3=O)cc2)nc2ccc(O)cc21 (configuration not stated)
2 | – | 1.3 | 18.1 | metabolite_not_detected | 1 | 2% | 0.02 | 0.08 | 1.3 | 1 | 1 | COc1ccc2nc(COc3ccc(CC(C(N)=O)S(C)(=O)=O)cc3)n(C)c2c1 (configuration not stated)
3 | 1.7 | 2.1 | 21.3 | – | – | – | 0.03 | 0.02 | 0.4 | – | – | COc1ccc2nc(COc3ccc(CC4(O)SC(=O)NC4=O)cc3)n(C)c2c1 (configuration not stated)
4 | 0.8 | 0.8 | 24.1 | 3% | 3 | metabolite_not_detected | 0.01 | 0.25 | – | – | – | COc1ccc2nc(COc3ccc(CC(SC)C(=O)O)cc3)n(C)c2c1 (configuration not stated)
5 | – | – | 20.9 | – | – | – | 0.01 | 0.05 | – | – | – | COc1ccc2nc(COc3ccc(CC(SC)C(N)=O)cc3)n(C)c2c1 (configuration not stated)
6 | – | – | 16.8 | – | – | – | – | 0.03 | – | – | – | COc1ccc2nc(COc3ccc(CC(SSCC(N)C(=O)O)C(=O)O)cc3)n(C)c2c1 (configuration not stated)
7 | – | – | 13.8 | metabolite_not_detected | – | 1.3% | – | – | – | – | 1.3 | Cn1c(COc2ccc(CC(C(N)=O)S(C)(=O)=O)cc2)nc2ccc(OS(=O)(=O)O)cc21 (configuration not stated)
8 | – | 2.6 | 15.1 | metabolite_not_detected | – | 1.5% | – | – | 2.6 | – | 1.5 | Cn1c(COc2ccc(CC3SC(=O)NC3=O)cc2)nc2ccc(O[C@@H]3O[C@H](C(=O)O)[C@@H](O)[C@H](O)[C@H]3O)cc21 (some centres not stated)
9 | 6.6 | 6.6 | 17.2 | – | – | – | – | 1.53 | – | – | – | COc1ccc2nc(COc3ccc(CC(SC(=O)N[C@@H]4O[C@H](C(=O)O)[C@@H](O)[C@H](O)[C@H]4O)C(=O)O)cc3)n(C)c2c1 (some centres not stated)
10 | – | 3.8 | 17.8 | – | – | – | – | 0.28 | 3.8 | – | – | O=C1NC(=O)C(Cc2ccc(OCc3nc4ccc(O)cc4[nH]3)cc2)S1 (configuration not stated)
11 | – | – | 21.5 | – | – | – | 0.02 | 7.01 | – | – | – | COc1ccc2nc(COc3ccc(CC4SC(=O)NC4=O)cc3)[nH]c2c1 (configuration not stated)
12 | – | – | 16.1 | metabolite_not_detected | 3.9 | 4.5% | 0.08 | 0.11 | – | 3.9 | 0.6 | COc1ccc2nc(COc3ccc(CC(C(N)=O)[S+](C)[O-])cc3)n(C)c2c1 (configuration not stated)
13 | – | 1.4 | 19.8 | metabolite_not_detected | – | 1% | – | 2.15 | 1.4 | – | 1 | COc1ccc2nc(COc3ccc(CC4SC(=O)N([C@@H]5O[C@H](C(=O)O)[C@@H](O)[C@H](O)[C@H]5O)C4=O)cc3)n(C)c2c1 (some centres not stated)
14 | – | – | 13.9 | – | – | – | – | – | – | – | – | Cn1c(COc2ccc(CC(SC(=O)N[C@@H]3O[C@H](C(=O)O)[C@@H](O)[C@H](O)[C@H]3O)C(=O)O)cc2)nc2ccc(O)cc21 (some centres not stated)
15 | 2.9 | 2.9 | 16.9 | 8.7% | 8.7 | metabolite_not_detected | – | – | – | – | – | CSC(Cc1ccc(OCc2nc3ccc(O)cc3n2C)cc1)C(N)=O (configuration not stated)
16 | – | – | 9.9 | metabolite_not_detected | – | 3.8% | – | – | – | – | 3.8 | Cn1c(COc2ccc(CC(C(N)=O)[S+](C)[O-])cc2)nc2ccc(OS(=O)(=O)O)cc21 (configuration not stated)
17 | – | 1.2 | 12.9 | metabolite_not_detected | 0.7 | 3.5% | – | – | 1.2 | 0.7 | 2.8 | CSC(Cc1ccc(OCc2nc3ccc(O[C@@H]4O[C@H](C(=O)O)[C@@H](O)[C@H](O)[C@H]4O)cc3n2C)cc1)C(N)=O (some centres not stated)
